{"source": "patent US5595730A", "about": "“Lactate dehydrogenase inhibitors in cosmetic compositions” (priority 1996, dated 1997)", "key": {"[1]": {"system": "Normal human epidermal keratinocytes (NHEK)", "assay": "Keratinocyte proliferation (DNA content, fluorometric)", "format": "cell-based", "conditions": "for Keratinocyte proliferation, % Increase Over Control: Table 8, single agent alone", "experimental": "Normal human epidermal keratinocytes (NHEK) derived from neonatal foreskin were used for all experiments. Media were purchased from Clonetics Corp., San Diego, Calif. Cell stocks frozen in passage 2 were grown in Keratinocyte Growth Medium (KGM) and passaged when 70-80% confluent. Cells were seeded in 96 well plates (Corning) at a density of 7500 cells/well in KGM. After 24 hours, cells were rinsed and dosed with test compounds in 200 μl of Keratinocyte Basal Medium (KBM). Plates were incubated for three days at 37° C., 5% CO2. Cell proliferation was estimated by assaying for DNA content by a fluorometric method described by Rago et al. (Analytical Biochemistry, 191:31-34, 1990). Medium was removed and cells were rinsed with phosphate buffered saline solution. 100 μl of sterile distilled water was added to each well and plates were frozen at -70° C. for one and a half hours. Plates were thawed for one hour at which time 100 μl of a 20 ug/ml solution of Bisbenzimide H33258 fluorochrome (Calbiochem Corp., La Jolla, Calif.) was added to each well. The fluorochrome was prepared just prior to use in 10 mM Tris, 1 mM EDTA, 4M NaCI, pH 7.4. Plates were read in a Millipore Cytofluor fluorescent plate reader to quantify DNA (excitation 360 nm, emission 460 nm). Percent increase over control was calculated from blank-corrected readings as (treated-untreated)/(untreated)*100. Each data point in the Tables below represents a mean of 5 or 6 replicates.\nThe procedure of Example 2 was repeated except that various co-active ingredients were tested for their ability to stimulate keratinocyte proliferation.\nThe procedure of Example 2 was repeated to test the effect of combination of an LDH inhibitor with another carboxylic acid on keratinocyte proliferation."}, "procollagen 1": {"system": "procollagen 1", "assay": "Assay for collagen synthesis (secreted procollagen 1 immunoassay, fibroblasts)", "conditions": "actives 0.2 to 20 mM, serum-free medium, 48 hours", "procedure": "Neonatal human dermal fibroblasts were purchased from Clonetics Corp., San Diego, Calif. All materials for cell culture were purchased from Life Technologies, N.Y. Cells were maintained in DMEM with 10% fetal bovine serum and used in passages 5-10. Confluent 96-well plates containing fibroblasts were treated with actives (0.2 to 20 mM) in serum-free medium for 48 hours. […] This was carried out in a BioDot SF apparatus according to the manufacturer's instructions (BioRad Labs, CA) and the blot was developed using a Vectastain Kit (PK6104, Vector Labs, CA) as per the manufacturer's directions. Color intensity was quantitated using an Ultroscan XL densitometer (Pharmacia LKB). Fold increase was calculated as (density of treated)/untreated."}}, "note": "Where two headings read alike, the source gives them in different places."}
{"molecule": "O=C(O)CC(=O)C(=O)O", "note": "[Oxaloacetate]", "values": [{"measurement": "activation at 2 µM", "setting": "[1]; Homo sapiens, NHEK, 72 h, read-out: Keratinocyte Proliferation (% increase over Control), Table 5, Test A, 0.002 mM", "value": 11, "unit": "%"}, {"measurement": "activation at 20 µM", "setting": "[1]; Homo sapiens, NHEK, 72 h, read-out: Keratinocyte Proliferation (% increase over Control), Table 5, Test A, 0.02 mM", "value": 15, "unit": "%"}, {"measurement": "activation at 200 µM", "setting": "[1]; Homo sapiens, NHEK, 72 h, read-out: Keratinocyte Proliferation (% increase over Control), Table 5, Test A, 0.2 mM", "value": 22, "unit": "%"}, {"measurement": "activation at 2000 µM", "setting": "[1]; Homo sapiens, NHEK, 72 h, read-out: Keratinocyte Proliferation (% increase over Control), Table 5, Test A, 2.0 mM", "value": 53, "unit": "%"}, {"measurement": "activation at 10000 µM", "setting": "[1]; Homo sapiens, NHEK, 72 h, read-out: Keratinocyte Proliferation (% increase over Control), Table 5, Test A, 10 mM", "value": 110, "unit": "%"}, {"measurement": "activation at 20 µM", "setting": "[1]; Homo sapiens, NHEK, 72 h, read-out: Keratinocyte Proliferation (% increase over Control), Table 5, Test B, 0.02 mM", "value": 30, "unit": "%"}, {"measurement": "activation at 200 µM", "setting": "[1]; Homo sapiens, NHEK, 72 h, read-out: Keratinocyte Proliferation (% increase over Control), Table 5, Test B, 0.2 mM", "value": 20, "unit": "%"}, {"measurement": "activation at 2000 µM", "setting": "[1]; Homo sapiens, NHEK, 72 h, read-out: Keratinocyte Proliferation (% increase over Control), Table 5, Test B, 2.0 mM", "value": 16, "unit": "%"}, {"measurement": "activation at 10000 µM", "setting": "[1]; Homo sapiens, NHEK, 72 h, read-out: Keratinocyte Proliferation (% increase over Control), Table 5, Test B, 10 mM", "value": 70, "unit": "%"}, {"measurement": "activation at 20000 µM", "setting": "[1]; Homo sapiens, NHEK, 72 h, read-out: Keratinocyte Proliferation (% increase over Control), Table 5, Test B, 20 mM", "value": 44, "unit": "%"}, {"measurement": "activation at 150 µM", "setting": "[1]; Homo sapiens, NHEK, 72 h, read-out: Keratinocyte Proliferation (% increase over Control), Table 5, Test C, 0.15 mM", "value": 13, "unit": "%"}, {"measurement": "activation at 300 µM", "setting": "[1]; Homo sapiens, NHEK, 72 h, read-out: Keratinocyte Proliferation (% increase over Control), Table 5, Test C, 0.3 mM", "value": 18, "unit": "%"}, {"measurement": "activation at 600 µM", "setting": "[1]; Homo sapiens, NHEK, 72 h, read-out: Keratinocyte Proliferation (% increase over Control), Table 5, Test C, 0.6 mM", "value": 20, "unit": "%"}, {"measurement": "activation at 1250 µM", "setting": "[1]; Homo sapiens, NHEK, 72 h, read-out: Keratinocyte Proliferation (% increase over Control), Table 5, Test C, 1.25 mM", "value": 18, "unit": "%"}, {"measurement": "activation at 2500 µM", "setting": "[1]; Homo sapiens, NHEK, 72 h, read-out: Keratinocyte Proliferation (% increase over Control), Table 5, Test C, 2.5 mM", "value": 40, "unit": "%"}, {"measurement": "activation at 5000 µM", "setting": "[1]; Homo sapiens, NHEK, 72 h, read-out: Keratinocyte Proliferation (% increase over Control), Table 5, Test C, 5.0 mM", "value": 35, "unit": "%"}, {"measurement": "activation at 10000 µM", "setting": "[1]; Homo sapiens, NHEK, 72 h, read-out: Keratinocyte Proliferation (% increase over Control), Table 5, Test C, 10 mM", "value": 0, "unit": "%"}, {"measurement": "activation at 80 µM", "setting": "[1]; Homo sapiens, NHEK, 72 h, read-out: Keratinocyte Proliferation (% increase over Control), Table 5, Test D, 0.08 mM", "value": 56, "unit": "%"}, {"measurement": "activation at 150 µM", "setting": "[1]; Homo sapiens, NHEK, 72 h, read-out: Keratinocyte Proliferation (% increase over Control), Table 5, Test D, 0.15 mM", "value": 76, "unit": "%"}, {"measurement": "activation at 300 µM", "setting": "[1]; Homo sapiens, NHEK, 72 h, read-out: Keratinocyte Proliferation (% increase over Control), Table 5, Test D, 0.3 mM", "value": 63, "unit": "%"}, {"measurement": "activation at 600 µM", "setting": "[1]; Homo sapiens, NHEK, 72 h, read-out: Keratinocyte Proliferation (% increase over Control), Table 5, Test D, 0.6 mM", "value": 48, "unit": "%"}, {"measurement": "activation at 1250 µM", "setting": "[1]; Homo sapiens, NHEK, 72 h, read-out: Keratinocyte Proliferation (% increase over Control), Table 5, Test D, 1.25 mM", "value": 37, "unit": "%"}, {"measurement": "activation at 2500 µM", "setting": "[1]; Homo sapiens, NHEK, 72 h, read-out: Keratinocyte Proliferation (% increase over Control), Table 5, Test D, 2.5 mM", "value": 37, "unit": "%"}, {"measurement": "activation at 5000 µM", "setting": "[1]; Homo sapiens, NHEK, 72 h, read-out: Keratinocyte Proliferation (% increase over Control), Table 5, Test D, 5.0 mM", "value": 52, "unit": "%"}, {"measurement": "activation at 10000 µM", "setting": "[1]; Homo sapiens, NHEK, 72 h, read-out: Keratinocyte Proliferation (% increase over Control), Table 5, Test D, 10 mM", "value": 52, "unit": "%"}, {"measurement": "Collagen Synthesis, Maximum fold over Control", "setting": "procollagen 1", "value": 3.0, "unit": "fold"}]}
{"molecule": "O=C(O)CCC(=O)O", "note": "[Succinate]", "values": [{"measurement": "Keratinocyte proliferation, % Increase Over Control", "setting": "[1]; 0.156 mM", "value": 48, "unit": "%"}, {"measurement": "Keratinocyte proliferation, % Increase Over Control", "setting": "[1]; 0.313 mM", "value": 48, "unit": "%"}, {"measurement": "Keratinocyte proliferation, % Increase Over Control", "setting": "[1]; 0.625 mM", "value": 39, "unit": "%"}, {"measurement": "Keratinocyte proliferation, % Increase Over Control", "setting": "[1]; 1.25 mM", "value": 51, "unit": "%"}, {"measurement": "Keratinocyte proliferation, % Increase Over Control", "setting": "[1]; 2.5 mM", "value": 58, "unit": "%"}, {"measurement": "Keratinocyte proliferation, % Increase Over Control", "setting": "[1]; 5.0 mM", "value": 0, "unit": "%"}, {"measurement": "Collagen Synthesis, Maximum fold over Control", "setting": "procollagen 1", "value": 2.8, "unit": "fold"}]}
